The test addresses T1, binding of TSP-1 protein to CD36, a TSP-1 receptor protein (Homo sapiens, UniProt P07996).
T1 construct: purchased novoprotein (TSP-1); R&D Systems (Fc-tagged CD36) CU45 (TSP-1); 1955-CD-050 (CD36-Fc)
Kind of test: ELISA: blocking of CD36 binding to TSP-1 protein. The settings on record: for inhibition at 100 µM: 3 h, 100 μM polypeptide, 0.25 μg/mL Fc-tagged CD36, blocking of CD36 binding to TSP-1, read-out: Blocking rate (Mean, %); for IC50: concentrations 0-100 μM. In short, it runs like this: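 Plate-bound TSP-1 (2 μg/mL coat) incubated 3 h at 37 °C with Fc-tagged CD36 (0.25 μg/mL final) ± polypeptide (100 μM final single-point; 0.5–100 μM for IC50); bound CD36 detected with FITC anti-Fc antibody fluorescence. Blocking rate = (control − treated)/control × 100%; IC50 from concentration dependence.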
(An ELISA detects its analyte on a solid surface through an enzyme-linked reagent.)

Bridge positions count the residues as written; N and C are the ends. Peptide text beside a SMILES is read from it.

One may read the IC50 as the midpoint of a concentration-inhibition curve. Read a high IC50 as weaker potency in that assay.

T1 sequence (P07996 19-1170): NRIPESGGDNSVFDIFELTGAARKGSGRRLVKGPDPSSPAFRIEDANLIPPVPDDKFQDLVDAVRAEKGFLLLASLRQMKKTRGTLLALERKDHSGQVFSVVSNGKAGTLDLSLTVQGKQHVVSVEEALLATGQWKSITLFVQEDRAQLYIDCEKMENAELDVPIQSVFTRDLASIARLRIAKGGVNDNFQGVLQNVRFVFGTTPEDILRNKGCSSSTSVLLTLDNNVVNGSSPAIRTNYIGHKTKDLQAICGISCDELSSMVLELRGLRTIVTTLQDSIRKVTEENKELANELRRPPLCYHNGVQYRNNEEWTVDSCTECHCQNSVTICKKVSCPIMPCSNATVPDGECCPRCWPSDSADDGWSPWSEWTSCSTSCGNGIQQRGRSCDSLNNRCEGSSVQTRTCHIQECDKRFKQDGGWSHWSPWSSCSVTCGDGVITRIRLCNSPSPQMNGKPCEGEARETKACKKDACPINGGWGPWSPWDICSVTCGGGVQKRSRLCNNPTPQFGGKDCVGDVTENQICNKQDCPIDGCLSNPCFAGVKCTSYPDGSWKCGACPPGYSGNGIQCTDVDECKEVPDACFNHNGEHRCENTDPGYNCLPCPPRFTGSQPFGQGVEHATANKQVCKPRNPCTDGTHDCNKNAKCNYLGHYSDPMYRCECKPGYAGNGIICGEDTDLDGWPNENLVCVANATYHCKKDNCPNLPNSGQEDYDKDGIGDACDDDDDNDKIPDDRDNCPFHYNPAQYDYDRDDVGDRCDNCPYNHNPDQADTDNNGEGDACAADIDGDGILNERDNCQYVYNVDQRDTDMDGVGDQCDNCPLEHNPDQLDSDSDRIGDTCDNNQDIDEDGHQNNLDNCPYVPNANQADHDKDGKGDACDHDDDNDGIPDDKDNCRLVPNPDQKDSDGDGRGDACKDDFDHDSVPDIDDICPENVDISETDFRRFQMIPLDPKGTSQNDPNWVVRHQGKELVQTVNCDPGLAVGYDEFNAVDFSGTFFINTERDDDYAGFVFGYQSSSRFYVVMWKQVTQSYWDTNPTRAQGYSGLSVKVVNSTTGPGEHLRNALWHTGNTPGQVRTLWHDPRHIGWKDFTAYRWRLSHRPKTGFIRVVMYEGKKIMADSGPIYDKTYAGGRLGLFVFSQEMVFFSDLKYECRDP

For the compound `C[C@@H]1NC(=O)[C@H]([C@@H](C)O)NC(=O)[C@H](CC(N)=O)NC(=O)[C@H](CC(=O)O)NC(=O)[C@H](CCC(=O)O)NC(=O)[C@@H]2CCCN2C(=O)[C@H](CC(=O)O)NC(=O)[C@H](CCC(N)=O)NC(=O)[C@H]([C@@H](C)O)NC(=O)[C@H](CO)NC1=O` [SEQ ID NO: 46, cyclo[Thr-Gln-Asp-Pro-Glu-Asp-Asn-Thr-Ala-Ser]] (cyclo(ASTQDPEDNT)), the inhibition at 100 µM was determined as 56.1%.

Take “Ac-TQDAEDNTASH-NH2 [SEQ ID NO: 33, Ac-Thr-Gln-Asp-Ala-Glu-Asp-Asn-Thr-Ala-Ser-His-NH2]”: the inhibition at 100 µM stood at 21.4%.

In the case of `CC(=O)N[C@H](C(=O)N[C@H]1CSSC[C@@H](C(=O)O)NC(=O)[C@H](CC(N)=O)NC(=O)[C@H](CC(=O)O)NC(=O)[C@H](CCC(=O)O)NC(=O)[C@H](C)NC(=O)[C@H](CC(=O)O)NC1=O)[C@@H](C)O` [SEQ ID NO: 43, Ac-Thr-cyclo[Cys-Asp-Ala-Glu-Asp-Asn-Cys]] (Ac-TCDAEDNC-OH; disulfide 2-8), the inhibition at 100 µM was determined as 52% and the IC50 stood at 3.62 µM.

For the compound `C[C@@H]1NC(=O)[C@H](CC(=O)O)NC(=O)[C@H](CCC(N)=O)NC(=O)[C@H]([C@@H](C)O)NC(=O)[C@H](CC(N)=O)NC(=O)[C@H](CC(=O)O)NC(=O)[C@H](CCC(=O)O)NC1=O` [SEQ ID NO: 40, cyclo[Thr-Gln-Asp-Ala-Glu-Asp-Asn]] (cyclo(AEDNTQD)), the inhibition at 100 µM is 37.5%.

Take “Ac-TQDAEDPTAS-NH2 [SEQ ID NO: 25, Ac-Thr-Gln-Asp-Ala-Glu-Asp-Pro-Thr-Ala-Ser-NH2]”: the inhibition at 100 µM amounted to 33%.

In the case of “Ac-TQDAEDN-NH2 [SEQ ID NO: 06, Ac-Thr-Gln-Asp-Ala-Glu-Asp-Asn-NH2]”, the inhibition at 100 µM worked out at 17.7%.

`CC(=O)N[C@H](C(=O)N[C@H]1CSSC[C@@H](C(N)=O)NC(=O)[C@H](CC(N)=O)NC(=O)[C@H](CC(=O)O)NC(=O)[C@H](CCC(=O)O)NC(=O)[C@H](C)NC(=O)[C@H](CC(=O)O)NC1=O)[C@@H](C)O` [SEQ ID NO: 44, Ac-Thr-cyclo[Cys-Asp-Ala-Glu-Asp-Asn-Cys]-NH2] (Ac-TCDAEDNC-NH2; disulfide 2-8): the inhibition at 100 µM stood at 52.9% and the IC50 turned out to be 6.71 µM.

For the compound “Ac-TQDPEDNTAS-NH2 [SEQ ID NO: 26, Ac-Thr-Gln-Asp-Pro-Glu-Asp-Asn-Thr-Ala-Ser-NH2]”, the inhibition at 100 µM worked out at 53.8%.

As for “Ac-TQDAEDPTA-NH2 [SEQ ID NO: 22, Ac-Thr-Gln-Asp-Ala-Glu-Asp-Pro-Thr-Ala-NH2]”, the inhibition at 100 µM worked out at 40.9%.

Source of the values: patent US20250388623A1, “PEPTIDE INHIBITOR AND USE THEREOF” (CHENGDU BRILLIANT INSPIRATION BIOTHERAPEUTICS CO., LTD, priority 2022, published 2025).
